According to PMC6413339 (EBioMedicine, 2019):
Entries after “also recorded” stand apart in the source; their conditions may differ.

Key:
[1] = test system: AML cell lines (MV4–11, MOLM-14, MOLM-14 (ITD, D835Y), MOLM-14 (ITD, F691 L)); experiment: Cell cycle analysis (PI flow cytometry); format: cell-based, human; conditions: 24 h and 48 h
Method: Cells seeded into T-25 flasks at a density of 8.0 × 10^4 cells/mL and incubated overnight at 37 °C with 5% CO2. Each treatment was performed in triplicates, with three flasks per treatment each with enough volume for both assays at the applicable time points. Following the overnight incubation, cells were treated with either DMSO or different concentrations of HSN431 (as indicated) in triplicates, mixed well and incubated. At each time point (24 and 48 h), aliquots of 1.5 mL of cells were collected from each flask and placed into labeled FACS tubes (for Annexin V apoptosis) or labeled 15 cc conical tubes (for cell cycle) and centrifuged at 300 × g for 5 min. Cells were washed twice with 1× PBS.
For cell cycle, cell pellets were resuspended in 0.5 mL PBS in 15 cc conical tubes and fixed with 4.5 mL of 70% ethanol. Fixed cells were stored at −20 °C until analysis with the Propidium Iodide (PI) Flow Cytometry Kit (cat. no. ab139418, Abcam, Cambridge, MA, USA). Samples were analyzed in duplicates on a FACSCanto II flow cytometer (BD Bioscience, San Jose, CA, USA) and cell cycle distribution was analyzed using the Watson algorithm analysis in FlowJo software (Flowjo, LLC, Ashland, OR).

MV4–11-luc cells = experiment: In vivo efficacy, orthotopic human AML model; conditions: for Photon intensity on whole body (mean±SEM): 25 mg/kg IP, 3×/week
Method: The in vivo efficacy of compounds was assessed in an orthotopic human AML model in NSG (NOD scid gamma, NOD-scid IL2Rg^null) mice that were bred at University of Maryland Baltimore (mating pairs acquired from Jackson Laboratories; Maine). […]. Three days later, engraftment was assessed by imaging on a Xenogen IVIS-2 Imaging System (Alameda) after an intraperitoneal (IP) injection of 150 mg/kg luciferin. Mice were sorted into four or five groups (n = 5) so that mean intensity (i.e., disease burden) was equal. Dosing started on day of sorting. Compounds were dissolved in 85% PBS (pH 7.4) buffer containing 10% DMSO and 5% Cremophore. The vehicle (buffer without compounds) was used as control. Mice were injected 3 to 5 days per week via IP injection. Mice were weighed on day of dosing and imaged once per week. […]. All mice were housed in a 12-h light/dark cycle with access to food and water ad libitum. Studies were performed with Institutional Animal Care and Use Committee (UMB and Purdue University) approval.
[…]. Female mice were dosed daily for 5 days via intraperitoneal injection and then monitored for an additional week for weight loss, a sign of toxicity in mice. […] To evaluate the anti-leukemic efficacy in vivo, six-week-old female NSG or NRG mice were injected intravenously with FLT3-ITD expressing acute myeloid leukemia cells (MV4–11), expressing luciferase. […] Dosing (i.p) with the compounds was then started. The mice were dosed with 25 mg/kg of the compounds three times a week (MWF). […] […].

MOLM-14 cells = experiment: Antiproliferative activity (CellTitre-Blue, 72 h); format: cell-based, human; conditions: Homo sapiens, MOLM-14; 72 h incubation, triplicates; read-out: IC50 (mean ±SD, nM) MOLM-14
Method: (§1) Cells were seeded into 96-well tissue culture-treated plates at 2.0 × 10^4 cells/mL for up to 24 h. DMSO stock solutions of compounds were serially diluted first in DMSO and subsequently into RPMI before being added to the cell cultures in triplicates, with 10 μM being the highest tested concentration. The plates were incubated for 72 h as above. The CellTitre-Blue assay (Promega, Madison WI) was then added to the cultures and incubated a further 4 h before the fluorescence measured following the manufacturers recommendations. The fluorescence data from compounds were normalized to that DMSO and the resulting data fitted to a non-linear regression equation to obtain IC50 using GraphPad Prism 5.0 Software (La Jolla, CA, USA).

[2] = test system: MOLM-14 (ITD, F691 L) cells; experiment: Antiproliferative activity (CellTitre-Blue, 72 h); format: cell-based, human; conditions: 72 h incubation, triplicates; listed as 7 (HSN431); read-out: IC50 (mean ±SD, nM) MOLM-14 (ITD, F691 L)
Method: as §1

MV4–11 cells = experiment: Antiproliferative activity (CellTitre-Blue, 72 h); format: cell-based, human; conditions: Homo sapiens, MV4-11, 72 h, 72 h incubation, triplicates; read-out: IC50 (mean ±SD, nM) MV4–11
Method: as §1

FLT3 = biological target: T1, FLT3 (Homo sapiens, UniProt P36888); experiment: Cell-free kinase assay, single dose (Reaction Biology, ADP-Glo); format: biochemical; conditions: inhibitor 500 nM; 100 μM ATP; average of duplicate
T1 construct: purchased Invitrogen PV3182
T1 sequence (P36888 564-993 limits assumed): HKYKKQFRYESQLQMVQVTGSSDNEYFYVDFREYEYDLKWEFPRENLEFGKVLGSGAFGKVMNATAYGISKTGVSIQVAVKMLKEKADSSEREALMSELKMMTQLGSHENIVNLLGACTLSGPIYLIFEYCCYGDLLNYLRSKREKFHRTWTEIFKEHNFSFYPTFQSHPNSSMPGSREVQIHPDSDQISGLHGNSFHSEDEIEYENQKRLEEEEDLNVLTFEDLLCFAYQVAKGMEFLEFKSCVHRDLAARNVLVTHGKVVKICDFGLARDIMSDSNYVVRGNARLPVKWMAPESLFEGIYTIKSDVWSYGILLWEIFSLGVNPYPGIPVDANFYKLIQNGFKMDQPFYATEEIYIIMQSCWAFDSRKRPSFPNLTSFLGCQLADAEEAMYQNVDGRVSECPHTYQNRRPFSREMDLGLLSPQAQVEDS
Method: Cell-free kinase activity assays were performed at Reaction Biology Corporation. […] DMSO was used as control. […] Experiments were performed in duplicates. The concentrations of kinases and substrates used in the assays are indicated on Table S1. Kinase activity was quantified using the ADP-Glo™ Kinase Assay System (Promega, Madison, WI) following the manufacturer's recommendations.

BRAF = biological target: T2, BRAF (Homo sapiens, UniProt P15056); experiment: Cell-free kinase assay, dose-response; format: biochemical; conditions: ATP 100 μM; read-out: IC50 BRAF (B-Raf)
T2 construct: purchased BPS 40005
Method: Cell-free kinase activity assays were performed at Reaction Biology Corporation. Briefly, kinases were incubated with substrates, 100 μM ATP and a 3-fold serial dilution of compounds starting at 1 μM. DMSO was used as control. […] Experiments were performed in duplicates. The concentrations of kinases and substrates used in the assays are indicated on Table S1. Kinase activity was quantified using the ADP-Glo™ Kinase Assay System (Promega, Madison, WI) following the manufacturer's recommendations.

T2 sequence (P15056 whole entry): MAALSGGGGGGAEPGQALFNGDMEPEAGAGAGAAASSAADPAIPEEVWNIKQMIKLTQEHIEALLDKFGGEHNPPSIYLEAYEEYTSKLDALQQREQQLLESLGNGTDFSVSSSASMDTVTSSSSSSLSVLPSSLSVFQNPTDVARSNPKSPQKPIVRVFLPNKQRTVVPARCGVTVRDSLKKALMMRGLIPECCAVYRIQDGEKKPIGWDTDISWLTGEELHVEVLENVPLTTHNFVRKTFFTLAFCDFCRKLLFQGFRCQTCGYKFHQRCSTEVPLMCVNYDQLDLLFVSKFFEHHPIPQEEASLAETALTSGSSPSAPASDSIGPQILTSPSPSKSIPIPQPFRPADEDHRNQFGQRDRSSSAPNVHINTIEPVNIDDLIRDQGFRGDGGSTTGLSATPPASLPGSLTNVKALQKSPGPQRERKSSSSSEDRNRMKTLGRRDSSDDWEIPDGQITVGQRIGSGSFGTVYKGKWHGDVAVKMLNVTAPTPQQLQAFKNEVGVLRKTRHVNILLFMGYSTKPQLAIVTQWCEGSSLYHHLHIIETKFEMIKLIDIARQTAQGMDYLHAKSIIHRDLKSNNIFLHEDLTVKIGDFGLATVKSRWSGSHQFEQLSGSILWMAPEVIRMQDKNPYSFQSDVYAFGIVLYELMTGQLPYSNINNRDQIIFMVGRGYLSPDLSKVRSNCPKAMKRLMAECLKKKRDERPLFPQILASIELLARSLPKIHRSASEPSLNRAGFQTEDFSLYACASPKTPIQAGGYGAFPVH

In the case of `Cc1ncc(C(=O)Nc2ccc(CN3CCN(C)CC3)c(C(F)(F)F)c2)cc1C#Cc1c(N)ncc2ccc(F)cc12` [Compound 7], the “cells in the sub-G1 phase” value [1] is reported as “accumulation”, the “distribution of cells in the S phase” value [1] is reported as “decreases” and the “population of cells in the G0/G1 phase” value ([1]; dose- and time-dependent) is reported as “increase”. For the same compound, the “adverse events / signs of toxicity on repeated dosing” value (MV4–11-luc cells; 25 mg/kg IP 3×/week for several weeks, listed as HSN431) was “without any adverse events; also recorded: without any obvious signs of toxicity”, the “reduction in leukemia burden” value (MV4–11-luc cells; 25 mg/kg i.p. three times a week (MWF), NSG or NRG mice) was over 99% and the “Photon intensity on whole body (mean±SEM)” value (MV4–11-luc cells; Day 1, n = 5) was 130000 ± 21400. The “Photon intensity on whole body (mean±SEM)” value (MV4–11-luc cells; Day 27, n = 5) was 4570 ± 615, the “Photon intensity on whole body (mean±SEM)” value (MV4–11-luc cells; Day 41, n = 5) was 19600 ± 3730 and the “Photon intensity on whole body (mean±SEM)” value (MV4–11-luc cells; Day 73, n = 5) was 4390 ± 140. For the same compound, the survival (MV4–11-luc cells; after day 73, 25 mg/kg IP 3×/week, n = 5) was “all five mice were still alive”, the mice still alive (MV4–11-luc cells; day 40, 25 mg/kg three times per week, all control mice had died) was 100% and the IC50 (MOLM-14 cells) was 0.5 ± 0.01 nM. For the same compound, the IC50 [2] was 3.3 ± 0.3 nM, the IC50 (MV4–11 cells) was 0.5 ± 0.01 nM and the inhibition at 0.5 µM (FLT3) was 97%. It also gave an IC50 (BRAF) of 26.3 nM.
